Test results: patent publication US20210164992A1, “COMPOSITIONS AND METHODS RELATED TO INNATE RESPONSE TO DNA AND REGULATION OF INTERFERON-BETA” (priority 2018, published 2021)

What was measured:
[1] = system: cellular m^6A effectors; assay: HCMV-induced accumulation of cellular m^6A effector proteins in NHDFs (immunoblotting); assay type: cell-based, human; details: NHDFs infected with HCMV (MOI=3); PP242 25 μM vs DMSO (FIG. 1E)
[2] = system: HCMV; assay: HCMV reproduction and spread in NHDFs, virus titer (TCID/50); assay type: cell-based, human cytomegalovirus; details: 1 μM JAK inhibitor (Pyridone 6) vs DMSO
[3] = system: IFNB1 mRNA; assay: IFNB1 mRNA abundance in response to dsDNA in siRNA-treated NHDFs with or without JAK inhibitor (qRT-PCR); assay type: cell-based, human; details: NHDFs transfected with dsDNA, JAK inhibitor (Pyridone 6) vs DMSO (FIG. 5A)
[4] = system: IFNB1 mRNA; assay: dsDNA-induced IFNB1 mRNA accumulation in primary human fibroblasts (RT-PCR), Rhein treatment; assay type: cell-based; details: primary human fibroblasts transfected with dsDNA, measured after 9 h; Rhein added 24 h prior to or at time of transfection; vs DMSO vehicle (FIG. 16)

Structure (SMILES): CC(C)n1nc(-c2cc3cc(O)ccc3[nH]2)c2c(N)ncnc21 [PP242]
- HCMV-induced increase in cellular m^6A effectors [1]: repressed

Structure (SMILES): CC(C)(C)c1nc2c3cc[nH]c(=O)c3c3cc(F)ccc3c2[nH]1 [JAK inhibitor, Pyridone 6]
- increase of HCMV reproduction in control siRNA-treated cultures ([2]; MOI=0.05, 7 d (FIG. 2D)): less than 10 fold
- HCMV reproduction in METTL14 siRNA-treated cultures ([2]; MOI=0.05, 7 d, compared to control siRNA levels (FIG. 2D)): to a large extent restored HCMV reproduction
- kinetics of IFNB1 mRNA accumulation [3]: faster

Structure (SMILES): O=C(O)c1cc(O)c2c(c1)C(=O)c1cccc(O)c1C2=O [Rhein]
- IFNB1 mRNA production [4]: dose-dependent inhibition of IFNB1 mRNA production
